# Tests used:
# [1] = tested on: Staphylococcus aureus; assay: Antibacterial activity against Staphylococcus aureus Smith was determined; assay type: functional
# [2] = tested on: Proteus mirabilis; assay: Antibacterial activity against Proteus mirabilis IFO3849 was determined; assay type: functional
# [3] = tested on: Providencia rettgeri; assay: Antibacterial activity against Providencia rettgeri IFO3850 was determined; assay type: functional
# [4] = tested on: Pseudomonas aeruginosa; assay: Antibacterial activity against Pseudomonas aeruginosa NCTC 10490 was determined; assay type: functional
# [5] = tested on: Staphylococcus aureus; assay: Antibacterial activity against Staphylococcus aureus ATCC 25923 was determined; assay type: functional
# [6] = tested on: Escherichia coli; assay: Antibacterial activity against Escherichia coli ATCC 25922 was determined; assay type: functional
# [7] = tested on: Morganella morganii; assay: Antibacterial activity against Morganella morganii IID 602 was determined; assay type: functional
# [8] = tested on: Staphylococcus epidermidis; assay: Antibacterial activity against Staphylococcus epidermidis IID 866 was determined; assay type: functional
# [9] = tested on: Enterococcus hirae; assay: Antibacterial activity against Enterococcus hirae ATCC 8043 was determined; assay type: functional
# [10] = tested on: Enterobacter cloacae; assay: Antibacterial activity against Enterobacter cloacae 963 was determined; assay type: functional
# [11] = tested on: Staphylococcus aureus; assay: Antibacterial activity against Staphylococcus aureus 209P-JC was determined; assay type: functional
# [12] = tested on: Serratia marcescens; assay: Antibacterial activity against Serratia marcescens IID 618 was determined; assay type: functional
# [13] = tested on: Moraxella catarrhalis; assay: Antibacterial activity against M(B). catarrhalis AtCC 25238 was determined; assay type: functional
# [14] = tested on: Micrococcus luteus; assay: Antibacterial activity against Micrococcus luteus ATCC 9341 was determined; assay type: functional
# [15] = tested on: Proteus vulgaris; assay: Antibacterial activity against Proteus vulgaris HX-19 was determined; assay type: functional
# [16] = tested on: Escherichia coli; assay: Antibacterial activity against Escherichia coli NIHJ JC-2 was determined; assay type: functional
# [17] = tested on: Klebsiella pneumoniae; assay: Antibacterial activity against Klebsiella pneumoniae IFO 3317 was determined; assay type: functional
# [18] = tested on: Klebsiella aerogenes; assay: Antibacterial activity against Enterobacter aerogenes IFO 13048 was determined; assay type: functional
# [19] = Evaluated for pharmacokinetic parameter half-life in rabbit at the dose 20 mg/kg; assay type: ADME, organism-based, Oryctolagus cuniculus; set-up: dose 20 mg/kg; conditions: in vivo
# [20] = tested on: Streptococcus pneumoniae; assay: Antibacterial activity against Streptococcus pneumoniae IID 553 was determined; assay type: functional
# [21] = Evaluated for pharmacokinetic parameter Cmax in rat at the dose 50 mg/kg; assay type: ADME, organism-based; set-up: dose 50 mg/kg; conditions: in vivo
# [22] = Evaluated for pharmacokinetic parameter tmax in mouse at the dose 20 mg/kg was determined; assay type: ADME, organism-based; set-up: dose 20 mg/kg; conditions: in vivo
# [23] = Evaluated for pharmacokinetic parameter Cmax in mouse at the dose 20 mg/kg; assay type: ADME, organism-based; set-up: dose 20 mg/kg; conditions: in vivo
# [24] = tested on: Moraxella catarrhalis; assay: Antibacterial activity against M(B). catarrhalis ATCC 25238 was determined; assay type: functional
# [25] = Evaluated for pharmacokinetic parameter area under curve in rat at the dose 50 mg/kg (0-8 hr ); assay type: ADME, organism-based; set-up: time < 8 hr, dose 50 mg/kg; conditions: in vivo
# [26] = Evaluated for pharmacokinetic parameter urine recovery in mouse at the dose 20 mg/kg (0-24 hr); assay type: ADME, organism-based; set-up: dose 20 mg/kg; conditions: read-out: UR
# [27] = Evaluated for pharmacokinetic parameter urine recovery in rat at the dose 50 mg/kg (0-24 hr); assay type: ADME, organism-based; set-up: dose 50 mg/kg; conditions: read-out: UR
# [28] = Evaluated for pharmacokinetic parameter area under curve in rabbit at the dose 20 mg/kg (0-4 hr ); assay type: ADME, organism-based, Oryctolagus cuniculus; set-up: time < 4 hr, dose 20 mg/kg; conditions: in vivo
# [29] = Evaluated for pharmacokinetic parameter tmax in rat at the dose 50 mg/kg; assay type: ADME, organism-based; set-up: dose 50 mg/kg; conditions: in vivo
# [30] = Evaluated for pharmacokinetic parameter area under curve in mouse at the dose 20 mg/kg (0-4 hr ); assay type: ADME, organism-based; set-up: time < 4 hr, dose 20 mg/kg; conditions: in vivo
# [31] = Evaluated for pharmacokinetic parameter Cmax in rabbit at the dose 20 mg/kg; assay type: ADME, organism-based, Oryctolagus cuniculus; set-up: dose 20 mg/kg; conditions: in vivo
# [32] = Evaluated for pharmacokinetic parameter tmax in rabbit at the dose 20 mg/kg; assay type: ADME, organism-based, Oryctolagus cuniculus; set-up: dose 20 mg/kg; conditions: in vivo
# [33] = Evaluated for pharmacokinetic parameter urine recovery in rabbit at the dose 20 mg/kg (0-24 hr); assay type: ADME, organism-based, Oryctolagus cuniculus; set-up: dose 20 mg/kg; conditions: read-out: UR
# [34] = tested on: Morganella morganii; assay: Antibacterial activity against Morganella morganii IID 602; assay type: functional
# [35] = Evaluated for pharmacokinetic parameter half-life in rat at the dose 50 mg/kg; assay type: ADME, organism-based; set-up: dose 50 mg/kg; conditions: in vivo
# [36] = tested on: Haemophilus influenzae; assay: Antibacterial activity against Haemophilus influenzae ATCC 19418 was determined; assay type: functional
# [37] = Evaluated for pharmacokinetic parameter half-life in mouse at the dose 20 mg/kg; assay type: ADME, organism-based; set-up: dose 20 mg/kg; conditions: in vivo
# [38] = Evaluated for pharmacokinetic parameter urine recovery in rat at the dose 50 mg/kg ( 0-24 hr ); assay type: ADME, organism-based; set-up: dose 50 mg/kg; conditions: read-out: UR
# [39] = Evaluated for pharmacokinetic parameter area under curve in mouse at the dose 20 mg/kg (0-4 hr); assay type: ADME, organism-based; set-up: time < 4 hr, dose 20 mg/kg; conditions: in vivo
# [40] = Evaluated for pharmacokinetic parameter area under curve in rat at the dose 50 mg/kg (0-8 hr); assay type: ADME, organism-based; set-up: time < 8 hr, dose 50 mg/kg; conditions: in vivo
# [41] = tested on: Micrococcus luteus; assay: Antibacterial activity against Micrococcus […] determined; assay type: functional
# [42] = Evaluated for pharmacokinetic parameter urine recovery in rabbit at the dose 20 mg/kg ( 0-24 hr ); assay type: ADME, organism-based, Oryctolagus cuniculus; set-up: dose 20 mg/kg; conditions: read-out: UR
# [43] = tested on: Klebsiella pneumoniae; assay: Antibacterial activity against Klebsiella pneumoniae IFO 331 was determined; assay type: functional
# [44] = Evaluated for pharmacokinetic parameter urine recovery in mouse at the dose 20 mg/kg ( 0-24 hr ); assay type: ADME, organism-based; set-up: dose 20 mg/kg; conditions: read-out: UR
# [45] = Evaluated for pharmacokinetic parameter tmax in mouse at the dose 20 mg/kg; assay type: ADME, organism-based; set-up: dose 20 mg/kg; conditions: in vivo
SMILES,MIC [1] [µg/mL],MIC [2] [µg/mL],MIC [3] [µg/mL],MIC [4] [µg/mL],MIC [5] [µg/mL],MIC [6] [µg/mL],MIC [7] [µg/mL],MIC [8] [µg/mL],MIC [9] [µg/mL],MIC [10] [µg/mL],MIC [11] [µg/mL],MIC [12] [µg/mL],MIC [14] [µg/mL],MIC [15] [µg/mL],MIC [16] [µg/mL],MIC [17] [µg/mL],MIC [18] [µg/mL],half-life [19] [h],MIC [20] [µg/mL],MIC [24] [µg/mL],further results
CO/N=C(\C(=O)NC1C(=O)N2C(C(=O)O)=C(/C=C\c3csnn3)CSC12)c1csc(N)n1 (stereo unspecified),0.39,0.1,≤ 0.006,50,0.78,0.39,0.1,0.2,100,0.39,0.78,0.39,0.05,≤ 0.006,0.39,0.012,0.78,,,,MIC [13]: 0.025 µg/mL
Nc1nc(/C(=N/O)C(=O)NC2C(=O)N3C(C(=O)O)=C(/C=C\c4csnn4)CSC23)cs1 (stereo unspecified),0.1,0.05,≤ 0.006,> 100,0.39,0.1,,0.05,12.5,0.2,0.1,0.39,0.012,0.05,0.1,0.012,0.2,2.2,0.05,0.05,Cmax [21]: 6000 ng/mL; Tmax [22]: 2 h; Cmax [23]: 1500 ng/mL; AUC at 8 h [25]: 19800 ng·h/mL; dose excreted [26]: 1.9%; dose excreted [27]: 3.5%; AUC at 4 h [28]: 9700 ng·h/mL; Tmax [29]: 2 h; AUC at 4 h [30]: 4700 ng·h/mL; Cmax [31]: 2000 ng/mL; Tmax [32]: 2 h; dose excreted [33]: 17.4%; MIC [34]: 0.025 µg/mL; half-life [35]: 4.4 h; MIC [36]: 0.05 µg/mL; half-life [37]: 0.7 h
CO/N=C(\C(=O)NC1C(=O)N2C(C(=O)O)=C(/C=C\c3scnc3C)CSC12)c1csc(N)n1 (stereo unspecified),0.78,0.39,0.025,12.5,0.78,0.39,0.2,0.39,> 100,0.78,0.78,0.39,0.025,≤ 0.006,0.39,0.025,0.78,,,≤ 0.006,
C=CC1=C(C(=O)O)N2C(=O)[C@@H](NC(=O)/C(=N\O)c3csc(N)n3)[C@H]2SC1 [CEFDINIR],0.2,0.2,≤ 0.006,> 100,0.39,0.39,6.25,0.1,100,0.78,0.39,1.56,,0.39,0.39,,1.56,1.9,0.1,0.2,dose excreted [38]: 13.2%; Cmax [21]: 6000 ng/mL; Cmax [23]: 2500 ng/mL; AUC at 4 h [39]: 10000 ng·h/mL; AUC at 8 h [40]: 13200 ng·h/mL; MIC [41]: 0.05 µg/mL; AUC at 4 h [28]: 64200 ng·h/mL; Tmax [29]: 2 h; dose excreted [42]: 64.2%; Cmax [31]: 5800 ng/mL; MIC [43]: 0.1 µg/mL; dose excreted [44]: 10%; Tmax [32]: 1 h; half-life [35]: 1.5 h; MIC [36]: 0.39 µg/mL; Tmax [45]: 1 h; half-life [37]: 0.6 h

# From ChEMBL document CHEMBL1127135, “Synthesis and biological properties of 3-[()-2-(1,2,3-Thiadiazolyl)ethenyl]-substituted cephalosporins and related compounds: new oral cephalosporins” (Bioorg Med Chem Lett, 1993)
